Data on 47 substances can be found in US20230190924A1, “ANTIGEN OF ALLERGY AND EPITOPE THEREOF” (HOYU CO., LTD., priority 2017, published 2023).

The test system of one assay is IgE antibodies from patients. Nature of the assay: Epitope mapping (2) overlapping (10-amino-acid peptides) and (3) alanine scanning on peptide arrays. Format: binding, human. The note with it: overlapping peptides with flanking sequence. The procedure, abridged: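 Overlapping 10-mer peptides shifted by one residue, and alanine-substituted peptides, spotted on cellulose and probed with patient and non-egg-allergic sera; IgE binding read by anti-human IgE-HRP chemiluminescence. Signal expressed relative to parent sequence and graded in bands from <20% (no binding) to ≥90% (retained binding).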
As for “SEQ ID NO: 553: sequence comprising a region amino-terminally adjacent to epitope 33 (IVTLAEKYDL; epitope)”, the “binding to IgE antibodies from patients, sequence comprising a region amino-terminally adjacent to the epitope” value is given as “binding to IgE antibodies from patients”. Regarding “SEQ ID NO: 556: sequence comprising a region carboxy-terminally adjacent to epitope 33 (NWAENLNQFI; epitope)”, the “binding to IgE antibodies from patients, sequence comprising a region carboxy-terminally adjacent to the epitope” value was “binding to IgE antibodies from patients”.

For “SEQ ID NO: 557: sequence comprising a region carboxy-terminally adjacent to epitope 33 (AENLNQFIET; epitope)”, the “binding to IgE antibodies from patients, sequence comprising a region carboxy-terminally adjacent to the epitope” value was “binding to IgE antibodies from patients”. As to “SEQ ID NO: 565: sequence comprising a region amino-terminally adjacent to epitope 34 (QDGTKVKLY; epitope)”, the “binding to IgE antibodies from patients, sequence comprising a region amino-terminally adjacent to the epitope” value was “binding to IgE antibodies from patients”. Still for that read-out and setting: the value for “SEQ ID NO: 576: sequence comprising a region amino-terminally adjacent to epitope 35 (YQVSKRVS; epitope)” was “binding to IgE antibodies from patients”. Turning to “SEQ ID NO: 577: sequence comprising a region carboxy-terminally adjacent to epitope 35 (LNPISAKVE; epitope)”, the “binding to IgE antibodies from patients, sequence comprising a region carboxy-terminally adjacent to the epitope” value was “binding to IgE antibodies from patients”. With “SEQ ID NO: 583: sequence comprising a region amino-terminally adjacent to epitope 36 (DIFELGLDG; epitope)”, the “binding to IgE antibodies from patients, sequence comprising a region amino-terminally adjacent to the epitope” value is reported as “binding to IgE antibodies from patients”. “SEQ ID NO: 584: sequence comprising a region carboxy-terminally adjacent to epitope 36 (EPTLEALFG; epitope)”: the “binding to IgE antibodies from patients, sequence comprising a region carboxy-terminally adjacent to the epitope” value is “binding to IgE antibodies from patients”.

As to “SEQ ID NO: 595: sequence comprising a region carboxy-terminally adjacent to epitope 37 (AKVAVKLHQK; epitope)”, the “binding to IgE antibodies from patients, sequence comprising a region carboxy-terminally adjacent to the epitope” value is recorded as “binding to IgE antibodies from patients”. “SEQ ID NO: 604: sequence comprising a region amino-terminally adjacent to epitope 38 (LVNYSPTK; epitope)”: the “binding to IgE antibodies from patients, sequence comprising a region amino-terminally adjacent to the epitope” value was “binding to IgE antibodies from patients”. For the substance “SEQ ID NO: 605: sequence comprising a region amino-terminally adjacent to epitope 38 (LVNYSPTKG; epitope)”, the “binding to IgE antibodies from patients, sequence comprising a region amino-terminally adjacent to the epitope” value is listed as “binding to IgE antibodies from patients”. Turning to “SEQ ID NO: 609: sequence comprising a region carboxy-terminally adjacent to epitope 38 (LQMSSSV; epitope)”, the “binding to IgE antibodies from patients, sequence comprising a region carboxy-terminally adjacent to the epitope” value is on record as “binding to IgE antibodies from patients”. In the case of “SEQ ID NO: 613: sequence comprising a region amino-terminally adjacent to epitope 39 (ANELLDR; epitope)”, the “binding to IgE antibodies from patients, sequence comprising a region amino-terminally adjacent to the epitope” value was “binding to IgE antibodies from patients”. Regarding “SEQ ID NO: 622: sequence comprising a region amino-terminally adjacent to epitope 40 (GRYLHLAAV; epitope)”, the “binding to IgE antibodies from patients, sequence comprising a region amino-terminally adjacent to the epitope” value is “binding to IgE antibodies from patients”. Take “SEQ ID NO: 623: sequence comprising a region amino-terminally adjacent to epitope 40 (GRYLHLAAVN; epitope)”: the “binding to IgE antibodies from patients, sequence comprising a region amino-terminally adjacent to the epitope” value was “binding to IgE antibodies from patients”.

For the substance “SEQ ID NO: 624: sequence comprising a region carboxy-terminally adjacent to epitope 40 (KLEFLLSKK; epitope)”, the “binding to IgE antibodies from patients, sequence comprising a region carboxy-terminally adjacent to the epitope” value was “binding to IgE antibodies from patients”. Same read-out and setting: with “SEQ ID NO: 631: sequence comprising a region carboxy-terminally adjacent to epitope 41 (QELLFGRLD; epitope)” the entry was “binding to IgE antibodies from patients”. As for “SEQ ID NO: 632: sequence comprising a region carboxy-terminally adjacent to epitope 41 (QELLFGRLDK; epitope)”, the “binding to IgE antibodies from patients, sequence comprising a region carboxy-terminally adjacent to the epitope” value is “binding to IgE antibodies from patients”. As to “SEQ ID NO: 644: sequence comprising a region amino-terminally adjacent to epitope 42 (QELLFGRL; epitope)”, the “binding to IgE antibodies from patients, sequence comprising a region amino-terminally adjacent to the epitope” value is recorded as “binding to IgE antibodies from patients”.

Take “SEQ ID NO: 657: sequence comprising a region amino-terminally adjacent to epitope 46 (VPDIMKMSFD; epitope)”: the “binding to IgE antibodies from patients, sequence comprising a region amino-terminally adjacent to the epitope” value is given as “binding to IgE antibodies from patients”.

Staying with this assay, now noted: procedures (B) overlapping and (C) alanine scanning.
Regarding “SEQ ID NO: 555: region in epitope 33 (AEKYDLKN; epitope)”, the “region within the epitope important for binding to IgE antibodies from patients” value (“region within the epitope important” for short) was “important for binding”. For the substance “SEQ ID NO: 561: region in epitope 34 (DEPLN; epitope)”, the “region within the epitope important” value is recorded as “important for binding”. On the same count and under the same terms, the value for “SEQ ID NO: 562: region in epitope 34 (DEPLNV; epitope)” was “important for binding”; that for “SEQ ID NO: 569: region in epitope 34 (VKLYPEKDEP; epitope)” was “important for binding”; that for “SEQ ID NO: 571: region in epitope 34 (KDEPLNV; epitope)” was “important for binding”. Regarding “SEQ ID NO: 573: region in epitope 34 (KDEP; epitope)”, the “region within the epitope important” value is “important for binding”. On the same count and under the same terms, the value for “SEQ ID NO: 579: region in epitope 35 (VSKRVS; epitope)” was “important for binding”; that for “SEQ ID NO: 581: region in epitope 35 (SVPGLNP; epitope)” was “important for binding”. The same measure, in the same setting: the value for “SEQ ID NO: 585: region in epitope 36 (GKGFE; epitope)” was “important for binding”; that for “SEQ ID NO: 587: region in epitope 37 (SGIV; epitope)” was “important for binding”; that for “SEQ ID NO: 589: region in epitope 37 (IVTPGAKVAV; epitope)” was “important for binding”. Still for that read-out and setting: with “SEQ ID NO: 592: region in epitope 37 (SGIVTPGAK; epitope)” the entry was “important for binding”; with “SEQ ID NO: 594: region in epitope 37 (IVTPGAKVAV; epitope)”, “important for binding”. With “SEQ ID NO: 598: region in epitope 37 (SGIVTPGA; epitope)”, the “region within the epitope important” value was “important for binding”. In the case of “SEQ ID NO: 600: region in epitope 37 (IVTPGAKVAV; epitope)”, the “region within the epitope important” value is “important for binding”.

As to “SEQ ID NO: 602: region in epitope 37 (TPGAKVAV; epitope)”, the “region within the epitope important” value is “important for binding”.

With “SEQ ID NO: 608: region in epitope 38 (PTKGYLQMSS; epitope)”, the “region within the epitope important” value was “important for binding”. For “SEQ ID NO: 616: region in epitope 39 (LLDRKVALT; epitope)”, the “region within the epitope important” value is given as “important for binding”. With “SEQ ID NO: 617: region in epitope 39 (LLDR; epitope)”, the “region within the epitope important” value is on record as “important for binding”. The same measure, in the same setting: the value for “SEQ ID NO: 619: region in epitope 39 (DRKVALTDMT; epitope)” was “important for binding”; that for “SEQ ID NO: 627: region in epitope 41 (SGYLKMFG; epitope)” was “important for binding”; that for “SEQ ID NO: 630: region in epitope 41 (YLKMFGQELL; epitope)” was “important for binding”. On the same count and under the same terms, with “SEQ ID NO: 636: region in epitope 41 (SGYLKMFG; epitope)” the entry was “important for binding”. Still for that read-out and setting: the value for “SEQ ID NO: 641: region in epitope 41 (SGYLKMF; epitope)” was “important for binding”; that for “SEQ ID NO: 642: region in epitope 41 (GQELL; epitope)” was “important for binding”. In the case of “SEQ ID NO: 647: region in epitope 42 (RLDKDTLQ; epitope)”, the “region within the epitope important” value is on record as “important for binding”.

“SEQ ID NO: 649: region in epitope 42 (DTLQNVLQ; epitope)”: the “region within the epitope important” value was “important for binding”.
